# Like-named read-outs stand apart in the source and are kept apart here. Marks after values point to notes of the source that are not given here.
# Columns and labels:
# cells = conditions: for Photopotentiation Factor: LD50 dark divided by LD50 light; for LD50 Light: light dose not fixed, 0.75-1.0 J/cm2 of 630 nm light
# Text: As used herein, “photopotentiation factor” refers to the property of the compound(s) to exert light- or sound-mediated toxicity in excess of its (their) inherent unactivated toxicity. […] Where the term “LD50” has been used above, the term “IC50” may be substituted, to address the bioassays that concern metabolic activity rather than the endpoint of lethality, loss of reproductive capability, or clonogenic death. The relative photoactivation efficiency of a compound may also be determined using a clonogenic assay, an assay that is well known to those skilled in the art.
# In accordance with the present invention, a desirable PQP derivative is one that is non-toxic (or of low toxicity) at high drug concentrations without activation, i.e., without light (also referred to as “dark”), and/or without sound, and is toxic at low concentrations when light of the appropriate wavelength, or sound of the appropriate frequency, is applied. As is recognized by those skilled in the art, the most desirable compounds are those that provide a wide range of non-toxic doses in an unactivated state, as this characteristic provides an increased safety factor for the patient.
# [1] = Singlet oxygen (1O2) yield; type: physicochemical
# [2] = Light absorption properties (red spectral region, 630 nm); type: physicochemical; conditions: for A630: absorbance at 630 nm
# [3] = Pharmacokinetics / tissue uptake of 14C-HB in tumor-bearing mice; type: in vivo, Balb/c mice
# Text: The excellent fluorescence properties of the hypocrellins and derivatives provide a valuable tool to monitor intracellular uptake and distribution kinetics by confocal laser scanning microscopy (CLSM). Each drug has unique properties of uptake and distribution (Miller et al 1995 a, b). The rate cells take up drug in humans […] can be determined using similar protocols as Liu et al 1995 and Miller et al., 1995 a or b). In vivo, the ideal time between i.v. injection or administration of the drug and light administration is preferably when tumor concentration of the photodynamic agent is optimal with respect to normal tissues, typically up to about 24 hours, but as long as 48 hours or more (Table 2).
# Pharmacokinetics of ^14C-HB in Balb/c mice bearing the EMT6/Ed tumor in one flank. […] With respect to skin, the optimal therapeutic ratio for tumor occurs 2 hours following drug administration.
substance,measurement,setting,value
Ethanolamine-HB [HBEA-R2],Photopotentiation Factor,cells,3.3
same,LD50 Light,cells,7.5 µM
same,LD50 Dark,cells; without light,25 µM
same,^1O2 Yield,[1],0.70
Ethylenediamine-HB [HBED-R2],Photopotentiation Factor,cells,5-8.3
same,LD50 Light,cells,3 to 5 µM
HA-Mg^++(Ac2),LD50 Dark,cells,>25 µM
same,LD50 Light,cells,>5 µM
same,^1O2 Yield,[1],0.71
same,Abs. Peak in red Spectral region,[2],616 nm
same,Extinction Coefficient (× 10^−3) (630 nm),[2],4.47 × 10^−3
same,A630,[2],0.447
same,Amax/solvent,[2]; solvent EtOH,0.958/EtOH
HB-Mg^++,LD50 Dark,cells,10 µM
same,Photopotentiation Factor,cells,10
same,LD50 Light,cells,1 µM
same,^1O2 Yield,[1],0.53
same,Abs. Peak in red Spectral region,[2],622 nm
same,Extinction Coefficient (× 10^−3) (630 nm),[2],5.27 × 10^−3
same,A630,[2],0.527
same,Amax/solvent,[2]; solvent EtOH,0.604/EtOH
"Hypocrellin A [HA, reference compound]",Photopotentiation Factor,cells,3-5
same,LD50 Light,cells,3 to 5 µM
same,LD50 Dark,cells; without light,15 µM
same,^1O2 Yield,[1],0.84
same,Abs. Peak in red Spectral region,[2],658* nm
same,Extinction Coefficient (× 10^−3) (630 nm),[2],0.86 × 10^−3
same,A630,[2],0.086
same,Amax/solvent,[2]; solvent DMF,0.093/DMF
Methylamine-HB [HBMA-IV],Photopotentiation Factor,cells,8.5
same,LD50 Light,cells,1 µM
^14C-Hypocrellin B,clearance from blood,[3]; Balb/c mice bearing EMT6/Ed tumor,rapid clearance
same,Tissue Uptake of ^14C-Hypocrellin B,"[3]; Bone, 0 Hours","19,825 ± 2,300 dpm/g"
same,Tissue Uptake of ^14C-Hypocrellin B,"[3]; Bone, 2 Hours","3,955 ± 2,070 dpm/g"
same,Tissue Uptake of ^14C-Hypocrellin B,"[3]; Bone, 24 Hours",660 ± 215 dpm/g
same,Tissue Uptake of ^14C-Hypocrellin B,"[3]; Bone, 48 Hours","1,125 ± 310 dpm/g"
same,Tissue Uptake of ^14C-Hypocrellin B,"[3]; Brain, 0 Hours","17,560 ± 560 dpm/g"
same,Tissue Uptake of ^14C-Hypocrellin B,"[3]; Brain, 2 Hours","3,855 ± 170 dpm/g"
same,Tissue Uptake of ^14C-Hypocrellin B,"[3]; Brain, 24 Hours","2,840 ± 275 dpm/g"
same,Tissue Uptake of ^14C-Hypocrellin B,"[3]; Brain, 48 Hours",845 ± 90 dpm/g
same,Tissue Uptake of ^14C-Hypocrellin B,"[3]; Fat, 0 Hours","20,550 ± 715 dpm/g"
same,Tissue Uptake of ^14C-Hypocrellin B,"[3]; Fat, 2 Hours","38,570 ± 5,610 dpm/g"
same,Tissue Uptake of ^14C-Hypocrellin B,"[3]; Fat, 24 Hours","19,550 ± 2,210 dpm/g"
same,Tissue Uptake of ^14C-Hypocrellin B,"[3]; Fat, 48 Hours","19,335 ± 2,335 dpm/g"
same,Tissue Uptake of ^14C-Hypocrellin B,"[3]; Heart, 0 Hours","113,920 ± 3,365 dpm/g"
same,Tissue Uptake of ^14C-Hypocrellin B,"[3]; Heart, 2 Hours","5,135 ± 910 dpm/g"
same,Tissue Uptake of ^14C-Hypocrellin B,"[3]; Heart, 24 Hours","7,835 ± 1,810 dpm/g"
same,Tissue Uptake of ^14C-Hypocrellin B,"[3]; Heart, 48 Hours","2,325 ± 245 dpm/g"
same,Tissue Uptake of ^14C-Hypocrellin B,"[3]; Ileum, 0 Hours","45,400 ± 3,600 dpm/g"
same,Tissue Uptake of ^14C-Hypocrellin B,"[3]; Ileum, 2 Hours","20,280 ± 2,850 dpm/g"
same,Tissue Uptake of ^14C-Hypocrellin B,"[3]; Ileum, 24 Hours","5,800 ± 645 dpm/g"
same,Tissue Uptake of ^14C-Hypocrellin B,"[3]; Ileum, 48 Hours","2,840 ± 595 dpm/g"
same,Tissue Uptake of ^14C-Hypocrellin B,"[3]; Kidney, 0 Hours","67,344 ± 950 dpm/g"
same,Tissue Uptake of ^14C-Hypocrellin B,"[3]; Kidney, 2 Hours","20,855 ± 3,955 dpm/g"
same,Tissue Uptake of ^14C-Hypocrellin B,"[3]; Kidney, 24 Hours","12,050 ± 1,845 dpm/g"
same,Tissue Uptake of ^14C-Hypocrellin B,"[3]; Kidney, 48 Hours","4,535 ± 765 dpm/g"
same,Tissue Uptake of ^14C-Hypocrellin B,"[3]; Liver, 0 Hours","394,190 ± 7,540 dpm/g"
same,Tissue Uptake of ^14C-Hypocrellin B,"[3]; Liver, 2 Hours","24,620 ± 4,885 dpm/g"
same,Tissue Uptake of ^14C-Hypocrellin B,"[3]; Liver, 24 Hours","22,495 ± 4,440 dpm/g"
same,Tissue Uptake of ^14C-Hypocrellin B,"[3]; Liver, 48 Hours","9,215 ± 720 dpm/g"
same,Tissue Uptake of ^14C-Hypocrellin B,"[3]; Lung, 0 Hours","651,100 ± 42,668 dpm/g"
same,Tissue Uptake of ^14C-Hypocrellin B,"[3]; Lung, 2 Hours","8,580 ± 655 dpm/g"
same,Tissue Uptake of ^14C-Hypocrellin B,"[3]; Lung, 24 Hours",3870 ± 525 dpm/g
same,Tissue Uptake of ^14C-Hypocrellin B,"[3]; Lung, 48 Hours","2,975 ± 360 dpm/g"
same,Tissue Uptake of ^14C-Hypocrellin B,"[3]; Muscle, 0 Hours","13,665 ± 600 dpm/g"
same,Tissue Uptake of ^14C-Hypocrellin B,"[3]; Muscle, 2 Hours","4,050 ± 940 dpm/g"
same,Tissue Uptake of ^14C-Hypocrellin B,"[3]; Muscle, 24 Hours","2,875 ± 560 dpm/g"
same,Tissue Uptake of ^14C-Hypocrellin B,"[3]; Muscle, 48 Hours","1,015 ± 205 dpm/g"
same,Tissue Uptake of ^14C-Hypocrellin B,"[3]; Pancreas, 0 Hours","32,010 ± 2,165 dpm/g"
same,Tissue Uptake of ^14C-Hypocrellin B,"[3]; Pancreas, 2 Hours","13,185 ± 12,055 dpm/g"
same,Tissue Uptake of ^14C-Hypocrellin B,"[3]; Pancreas, 24 Hours","32,390 ± 11,840 dpm/g"
same,Tissue Uptake of ^14C-Hypocrellin B,"[3]; Pancreas, 48 Hours","16,915 ± 3,845 dpm/g"
same,Tissue Uptake of ^14C-Hypocrellin B,"[3]; Serum, 0 Hours","69,975 ± 1,925 dpm/g"
same,Tissue Uptake of ^14C-Hypocrellin B,"[3]; Serum, 2 Hours","1,655 ± 170 dpm/g"
same,Tissue Uptake of ^14C-Hypocrellin B,"[3]; Serum, 24 Hours","1,020 ± 160 dpm/g"
same,Tissue Uptake of ^14C-Hypocrellin B,"[3]; Serum, 48 Hours",700 ± 240 dpm/g
same,Tissue Uptake of ^14C-Hypocrellin B,"[3]; Skin, 0 Hours","14,970 ± 74 dpm/g"
same,Tissue Uptake of ^14C-Hypocrellin B,"[3]; Skin, 2 Hours","3,130 ± 221 dpm/g"
same,Tissue Uptake of ^14C-Hypocrellin B,"[3]; Skin, 24 Hours","2,700 ± 170 dpm/g"
same,Tissue Uptake of ^14C-Hypocrellin B,"[3]; Skin, 48 Hours","1,590 ± 250 dpm/g"
same,Tissue Uptake of ^14C-Hypocrellin B,"[3]; Spleen, 0 Hours","151,870 ± 9,395 dpm/g"
same,Tissue Uptake of ^14C-Hypocrellin B,"[3]; Spleen, 2 Hours","58,900 ± 4,205 dpm/g"
same,Tissue Uptake of ^14C-Hypocrellin B,"[3]; Spleen, 24 Hours","14,970 ± 3,215 dpm/g"
same,Tissue Uptake of ^14C-Hypocrellin B,"[3]; Spleen, 48 Hours","26,700 ± 11,105 dpm/g"
same,Tissue Uptake of ^14C-Hypocrellin B,"[3]; Stomach, 0 Hours","28,280 ± 145 dpm/g"
same,Tissue Uptake of ^14C-Hypocrellin B,"[3]; Stomach, 2 Hours","21,630 ± 3,345 dpm/g"
same,Tissue Uptake of ^14C-Hypocrellin B,"[3]; Stomach, 24 Hours","34,385 ± 8,795 dpm/g"
same,Tissue Uptake of ^14C-Hypocrellin B,"[3]; Stomach, 48 Hours","12,460 ± 975 dpm/g"
same,Tissue Uptake of ^14C-Hypocrellin B,"[3]; Tumor, 0 Hours","7,885 ± 270 dpm/g"
same,Tissue Uptake of ^14C-Hypocrellin B,"[3]; Tumor, 2 Hours","3,775 ± 400 dpm/g"
same,Tissue Uptake of ^14C-Hypocrellin B,"[3]; Tumor, 24 Hours","2,950 ± 80 dpm/g"
same,Tissue Uptake of ^14C-Hypocrellin B,"[3]; Tumor, 48 Hours","2,165 ± 470 dpm/g"
same,time of optimal therapeutic ratio for tumor with respect to skin,[3]; following drug administration,2 h
n-butylaminated HB [HBBA-R2],LD50 Dark,cells,>100 µM
same,Photopotentiation Factor,cells,167-500
same,LD50 Light,cells,0.2 to 0.6 µM
same,cell killing with light,cells; wavelengths between at least 630 and 688 nm,capable of killing cells
same,^1O2 Yield,[1],0.32
same,Abs. Peak in red Spectral region,[2],616* nm
same,Extinction Coefficient (× 10^−3) (630 nm),[2],6.19 × 10^−3
same,A630,[2],0.619
same,Amax/solvent,[2]; solvent CHCl3,0.628/CHCl3

# — patent publication US6627664B2, “Perylenequinones for use as sonosensitizers” (Altachem Pharma Ltd., priority 2001, dated 2003)
